We go through 2 compounds from patent US20020077291A1, “Method of treatment of tumors using transforming growth factor-alpha” (priority 2000, published 2002).

The subject of data set [1] is human epidermal cancer cell tumor (A-431). Briefly: Effect of TGF-α and cisplatin on tumor growth in the A431 human epidermal cancer MetaMouse model. In kind it is in vivo, nude mice. Conditions: FIGS. 1 and 3; for tumor growth (mean tumor volume): A431 tumor orthotopically implanted in nude mice, cisplatinum 10 mg/kg days 3, 9 (20), TGF-alpha 50 ug/kg days 3-7, 9-13 (20-24), 26 days; for tumor growth inhibition compared with cisplatinum treatment: TGF-alpha alone 50 ug/kg vs cisplatinum 10 mg/kg, A431 model. The method, then:
Using a nude mouse model and human epidermal cancer cell tumor (A-431), having 10^7 or greater EGF receptors, the inventors investigated whether TGF-alpha would promote tumor growth. In a parallel experiment, the tumor was treated with a chemotherapeutic agent, cisplatinum. […] In a further parallel experiment, the inventors investigated whether TGF-alpha would directly influence the survival of the tumor. […] Five mice in three of the four groups were sacrificed at this time. […] Phase 3 began on day 20.
The study consisted of four groups of nude mice:
1. Group A—control (15 animals); this group was implanted with tumor and treated only with placebo (according to TGF-injection schedule).
2. Group B—TGF-controls (10 animals); this group was implanted with tumor and received only TGF-injection (according to TGF-injection schedule).
PHASE 1 :On day 1 all animals were orthotopically implanted with tumor in their breast fat flaps (2-3 tumor tissue specimens per animal). On day 3 in the morning the tumor was measured in all animals. Then animals from group B and D received the first injection of TGF-alpha, animals from group A and C received placebo. Six hours later animals from group C and D received cisplatin injection.
(§1) TGF-alpha was injected at a concentration of 1 microgram per mouse (assuming mouse weighs 20 gram) or 50 microgram per kg.
On day 4, day 5, day 6 and day 7 animals from group B and D received additional TGF-alpha injections spaced 24 hours from the first administration; at the same time, animals from group A and C received placebo.
On day 6 the tumor load in all animals was measured again.
On day 8, five animals were randomly selected from group A, C and D for sacrifice. Their tumor load was measured again, their blood drawn and their intestines, kidneys and spleen removed and preserved. The spleen weight was determined at the time of collection.
(§2) Phase 2. […] On day 10, day 11, day 12 and day 13 animals from group B and D received additional TGF-alpha injections spaced 24 hours from the 9th day administration; animals from group A and C receive placebo at the same time.
On day 12 the tumor load in all animals was measured again. On day 15 […]. their tumor load was measured again, their blood drawn and their intestines, kidneys and spleen removed and preserved. The spleen weight was determined at the time of collection.
Phase 3. On day 20 in the morning the tumor load was measured in all remaining animals according to anticancer procedure. Each group of 10 (groups A, B, C, D) mice were divided into two subgroups: for phase 3A, 5 animals in each group were maintained with no further treatments). […]

The nature of data set [2]: Toxicity (body weight, death) in tumor-bearing nude mice of the A431 model. It is filed as in vivo.
Description: Using a nude mouse model and human epidermal cancer cell tumor (A-431), having 10^7 or greater EGF receptors, the inventors investigated whether TGF-alpha would promote tumor growth. […] In a further parallel experiment, the inventors investigated whether TGF-alpha would directly influence the survival of the tumor. […] Five mice in three of the four groups were sacrificed at this time. […] Phase 3 began on day 20.
PHASE 1 :On day 1 all animals were orthotopically implanted with tumor in their breast fat flaps (2-3 tumor tissue specimens per animal). On day 3 in the morning the tumor was measured in all animals. Then animals from group B and D received the first injection of TGF-alpha, animals from group A and C received placebo.
as §1, §2
Phase 3. On day 20 in the morning the tumor load was measured in all remaining animals according to anticancer procedure. Each group of 10 (groups A, B, C, D) mice were divided into two subgroups: for phase 3A, 5 animals in each group were maintained with no further treatments). For phase 3B, 5 animals from original groups B and D received another injection of TGF-alpha and animals from original group A and C received placebo. […] On day 21, 22, 23 and 24 the five animals from original groups B and D received additional TGF-alpha injections spaced 24 hours from the 20th day of administration; the five selected animals from original group a and c received placebo at the same time. The experiment was terminated on day 26.
body weight—daily for all animals

The subject of data set [3] is EGF receptor family (e.g., ErbB1 through 4). To be noted: background statement; cited from earlier work.
For data set [4] the following is noted: background statement; cited from earlier work.

In the case of `N.N.[Cl][Pt][Cl]` [cisplatinum, cisplatin, reference compound], the “tumor growth (mean tumor volume)” value in data set [1] is “more effective than the control”.
For “transforming growth factor alpha [TGF-alpha]”, in data set [1], the “tumor growth (mean tumor volume)” value is reported as “inhibited tumor growth” and the “tumor growth inhibition compared with cisplatinum treatment” value is “to the same degree as cisplatinum treatment”. For the same compound, the “tumor growth inhibition compared with cisplatinum treatment” value in data set [1] (listed as TGF-α) is given as “as effective as cisplatin”. For the same compound, the “protection against death caused by the third treatment of cisplatinum” value in data set [2] (TGF-alpha 50 ug/kg days 20-24 with cisplatinum 10 mg/kg day 20, FIG. 4) is “protected against the death”. For the same compound, the “protection against toxicity of cisplatinum” value in data set [2] (TGF-alpha 50 ug/kg given with cisplatinum 10 mg/kg, FIGS. 2 and 4) is “protected against toxicity of cisplatinum”. Besides, the body weight result in data set [2] (mean body weight, daily, 26 days, FIGS. 2 and 4, cisplatin effect at the third treatment (day 20)) was “no effect on body weight”. The binding affinity result in data set [3] is “high affinity in the nanomolar range”. The “acid and heat stability” value in data set [4] is “acid and heat stable”.
